Data set [1] has as its system HBV. The experiment in a line: ELISA of HBsAg and HBeAg in medium, time course of drug treatment in HBV infection system (HepG2-NTCP-AS cells). In kind it is cell-based, hepatitis B virus. The protocol:
(§1) However, HBc is strongly arrested in the nucleus by about 150-fold at 9 dpi, when co-treated with compounds KPT-330 or KPT-335. These two drugs are CRM1 inhibitors. Green: HBc. Red: NTCP. Blue: DAPI. […] Briefly, the infected culture of HepG2-NTCP-AS cells are treated with KPT-335 (0.5-1 μM) at 0, 3, and 5 dpi continuously until cell harvesting. Media are collected for ELISA of HBsAg and HBeAg. Cells are harvested for further analysis by Southern blot (SB) and Northern blots (NB). […] The level of total cytoplasmic viral RNA is reduced moderately by treatment with SINE compounds (1 μM). Comparisons of relaxed circular (RC) DNA banding intensities are as described in FIGS. 1A-1B legend, and normalized here to the no drug treatment control. SS: […].
(§2) The results in FIGS. 1A-1B by genetic mutant analysis was also supported by the results from the CRM1 drug treatment experiment (FIGS. 2A-2F). KPT-330 and KPT-335 are known CRM1 inhibitors. In an HBV in vitro infection system, when KPT-330 or KPT-335 were added to the cell culture before or soon after the infection with HBV, HBc was strongly arrested in the nucleus by immunofluorescence microscopy (FIG. 2A). Relative to the control with no drug treatment, KPT-330 and KPT-335 could increase nuclear HBc by approximately 150-fold (FIG. 2B). HBsAg and HBeAg were HBV serum markers.
On the technique in general: An ELISA detects its analyte on a solid surface through an enzyme-linked reagent.

In data set [2] the test system is HBV. The experiment in a line: Southern and Northern blot analyses of HBV DNA synthesis and capsid-associated pgRNA in the infection assay. Format: cell-based, hepatitis B virus. As to conditions: cotreatment, 0.5-1 μM. As to the method:
as §1, §2

In data set [3] the test system is HBV. The experiment in a line: HBV virion secretion assay, HuH-7 cells transfected with HBV replicon, native agarose gel with Western and Southern blot. Format: cell-based, hepatitis B virus. As to the method:
(§3) FIGS. 6A and 6B show a cartoon illustration for the analysis methods of extracellular and intracellular HBV viral and subviral particles. […] Viral and subviral particles are separated and characterized by Southern and Western blot analyses. Anti-HBc and anti-HBs antibodies are used consecutively for the same Western blot filters. Southern blot is performed in a separate agarose gel which allows the differentiation of genome-containing (G^+) from genome-free (G^−) viral and subviral particles. […] Then, the RNA/DNA signals are analyzed by Northern blot and Southern blot. 3.5 kb pgRNA: full-length 3.5 kb pre-genomic RNA. RT RNA: reverse transcripted RNA.
(§4) This mutant secretes no naked capsids. V/NC: Virions/naked capsids.
An HBV replicon plasmid is transfected into HuH-7 human hepatoma cell line. SINE compound KPT-8602 is added to the transfected culture at 0 hr post-transfection (i.e., co-treatment). Extracellular media are collected on day 5 (120 hr) post-transfection. Assays for virion secretion are as described in FIG. 6A. Secretion of naked capsids is 100-fold (10 μM/0.1 μM) less sensitive to KPT-8602 treatment than virions.
(§5) HBV secreted a total of six different viral and subviral particles in hepatocyte cell culture (FIG. 5). The only infectious particles were the genome-containing virions, which contained envelope protein, capsids, and encapsidated relaxed circle DNA genome. In FIGS. 6A and 6B, a cartoon illustrated the analysis methods of extracellular and intracellular HBV viral and subviral particles. […] Adding drug at 1-day post infection was not effective in blocking virion secretion (FIG. 7C). The potential cytotoxicity of KPT-335 was evaluated using two different methods—Alamar Blue and CCK-8 assays (FIG. 8).
(In general: A replicon is a self-replicating genome or part of one, used to study replication in cells.)

Data set [4] deals with HBV. The experiment in a line: Intracellular WT-HBV capsid protein, capsid-associated viral RNA and DNA in the dose-response experiment. In kind it is cell-based, hepatitis B virus. As to conditions: 0.5 μM. The protocol:
as §3, §4, §5

Another data set deals with HuH-7 cells. The experiment in a line: Cell proliferation by alamarBlue and CCK-8 assays. Format: cell-based, human.
Description: as §5
(In general: Resazurin is reduced to fluorescent resorufin, in cell work by metabolically active cells.)

The subject of data set [5] is human cytomegalovirus (HCMV). As to conditions: by increasing the expression of type I interferon; cited from earlier work.
Data set [6] concerns Kaposi's sarcoma-associated herpesvirus (KSHV). As to conditions: cited from earlier work.
[7] abbreviates: drug and virus added at the same time (co-treatment), 0.5-1 μM.

“Also recorded” adds a separate entry of the source.

For `O=C(/C=C\n1cnc(-c2cc(C(F)(F)F)cc(C(F)(F)F)c2)n1)NNc1ccccn1` [KPT-335, Verdinexor], in the data set with HBV [1] (added at 3 or 5 dpi), the “effect on HBV” value is “no effect”. Besides, in the data set with HBV [1] (drug added at 3 or 5 dpi), the “HBeAg in the medium by ELISA” value was “no apparent effect” and the “HBsAg in the medium by ELISA” value is “no apparent effect”. Further, in the data set with HBV [1] (setting [7]), the “HBeAg in the medium by ELISA” value was “inhibit; also recorded: complete inhibition” and the “HBsAg in the medium by ELISA” value was “inhibit; also recorded: complete inhibition”. In the data set with HBV [2], the “HBV DNA synthesis” value is recorded as “strongly inhibited”, the “HBV RNA encapsidation (cytoplasmic capsid-associated pgRNA)” value was “strongly inhibited” and the “formation of HBc capsids” value is on record as “strongly inhibited”. Moreover, the HBV virion secretion result in the data set on HBV [3] (0.5 μM, co-treatment) is reported as “almost completely block”. Besides, in the data set with HBV [3] (0.1, 0.25, 0.5 and 1 μM), the “secretion of naked capsids, sensitivity in contrast to virions” value is listed as “much less sensitive”. Moreover, the blocking virion secretion result in the data set on HBV [3] (drug added at 1-day post infection) is recorded as “not effective”. Further, in the data set with HBV [4], the capsid protein result is “no significant effect” and the “capsid-associated RNA (RNA encapsidation)” value was “no significant effect”. Besides, in the data set on HuH-7 cells (below 0.25 μM, alamarBlue and CCK-8), the anti-proliferation effect result was “No significant anti-proliferation effect”.
Take `NC(=O)/C(=C/n1cnc(-c2cc(C(F)(F)F)cc(C(F)(F)F)c2)n1)c1cncnc1` [KPT-8602, Eltanexor]: in the data set with HBV [3] (0.1 μM, co-treatment at 0 hr post-transfection, media collected day 5), the HBV virion secretion result is given as “blocks; also recorded: nearly completely block”. Moreover, in the data set on HBV [3] (0.1, 0.25, 0.5 and 1 μM), the “inhibition of HBV virion secretion, side-by-side comparison” value is reported as “more inhibitory than KPT-335” and the “secretion of naked capsids, sensitivity in contrast to virions” value is “much less sensitive”. Besides, in the data set on HBV [3] (HBV virion secretion, HuH-7), the “potency, side-by-side comparison” value is on record as “more potent”. Moreover, the “secretion of naked capsids less sensitive than virions (10 μM/0.1 μM)” value in the data set on HBV [3] (HuH-7, co-treatment, day 5) came out at 100 fold. Further, in the data set on HuH-7 cells, the “cytotoxicity, side-by-side comparison” value is “less cytotoxic”. For the same compound, the “inhibition of human cytomegalovirus (HCMV)” value in data set [5] is given as “inhibit”. Besides, the “lytic replication of KSHV” value in data set [6] is given as “reduced”.
